In US11919886B2, “4,9-dioxo-4,9-dihydronaphtho[2,3-B]furan-3-carboxamide derivatives and uses thereof for treating proliferative diseases and infectious diseases” (Academia Sinica, priority 2016, dated 2024):

What was measured:
Staphylococcus aureus = assay: Bacterial growth by Alamar Blue in Muller-Hinton broth; format: cell-based; conditions: ~10 μM, 16-24 hours, Alamar Blue, read-out: % of the activities in the presence of ~10 μM compound, Staphylococcus aureus
Protocol: (§1) Compound 1 and its analogues shown in Table 6 below were tested for their activities on cancer cells and bacterial cells using assays described herein. H1975, MDA-MB231, and MCF7 cells were incubated in the presence of the compounds in cell growth medium containing 10% fetal bovine serum for two days in a mammalian cell culture incubatoe. Cell viability were monitored by using Cell-TiterGlo. Staphylococcus aureus and Escherichia coli were incubated in the presence of the compounds in Muller-Hinton broth for 16-24 hours in a 37° C. incubator. Bacterial growth was monitored by using Alamar Blue (Invitrogen).

Escherichia coli = assay: as above; format: cell-based; conditions: 16-24 hours, read-out: % of the activities in the presence of ~10 μM compound, Escherichia coli
Protocol: as §1

[1] = system: Lung Cancer Cells (H1975); assay: Cell viability by Cell-TiterGlo; format: cell-based; conditions: Homo sapiens, NCI-H1975, 48 h, two days, read-out: % of the activities in the presence of ~10 μM compound, Lung Cancer Cells (H1975)
Protocol: as §1

[2] = system: Breast Cancer Cells (MDA-MB231); assay: Cell viability by Cell-TiterGlo; format: cell-based; conditions: Homo sapiens, MDA-MB-231, 48 h, two days, read-out: % of the activities in the presence of ~10 μM compound, Breast Cancer Cells (MDA-MB231)
Protocol: as §1

[3] = system: Breast Cancer Cells (MCF); assay: Cell viability by Cell-TiterGlo; format: cell-based; conditions: Homo sapiens, 48 h, two days, read-out: % of the activities in the presence of ~10 μM compound, Breast Cancer Cells (MCF)
Protocol: as §1

H1975 cell line = assay: Sulforhodamine B colorimetric (SRB) assay, H1975; conditions: Homo sapiens, NCI-H1975, 72 h, H1975 cell line, SRB assay, 72 hours

SMILES	melting point	IC50 (H1975 cell line)	activity at 10 µM (Staphylococcus aureus)	activity at 10 µM (Escherichia coli)	viability at 10 µM [1]	viability at 10 µM [2]	viability at 10 µM [3]
O=C(NCCN1CCOCC1)c1coc2c1C(=O)c1ccccc1C2=O [Compound 00053891400]	–	–	> 100%	> 100%	4%	12.2%	6.1%
CCCCNC(=O)c1c(C)oc2c1C(=O)c1ccccc1C2=O [Compound 00055422996]	–	–	> 100%	> 100%	4.3%	20.9%	6.9%
Cc1[nH]c2c(c1C(=O)NCCCn1ccnc1)C(=O)c1ccccc1C2=O [Compound 45, N-(3-(1H-imidazol-1-yl)propyl)-2-methyl-4,9-dioxo-4,9-dihydro-1H-benzo[f]indole-3-carboxamide]	–	8730 nM	–	–	–	–	–
Cc1oc2c(c1C(=O)NC(C)(C)C)C(=O)c1ccccc1C2=O [Compound 00055422098]	–	–	> 100%	> 100%	3.7%	69.8%	35%
COCCNC(=O)c1c(C)oc2c1C(=O)c1ccccc1C2=O [Compound 00054811255]	–	–	> 100%	> 100%	4.2%	13.4%	6.5%
Cc1oc2c(c1C(=O)NCCC(C)C)C(=O)c1ccccc1C2=O [Compound 00055727872]	–	–	> 100%	> 100%	4.2%	72%	44.3%
Cc1oc2c(c1C(=O)N1CCC(C)CC1)C(=O)c1ccccc1C2=O [Compound 00054506228]	–	–	65.4%	> 100%	4.6%	54.4%	13.6%
Cc1oc2c(c1C(=O)N1CCOCC1)C(=O)c1ccccc1C2=O [Compound 00056034607]	–	–	75.8%	> 100%	4.4%	61.2%	12.9%

Second part, led by results:

melting point	IC50 (H1975 cell line)	SMILES	activity at 10 µM (Staphylococcus aureus)	activity at 10 µM (Escherichia coli)	viability at 10 µM [1]	viability at 10 µM [2]	viability at 10 µM [3]
158.6 to 164.1 °C	250 nM	Cc1oc2c(c1C(=O)NCCCCn1ccnc1)C(=O)c1ccccc1C2=O [Compound 13, N-(4-(1H-imidazol-1-yl)butyl)-2-methyl-4,9-dioxo-4,9-dihydronaphtho[2,3-b]furan-3-carboxamide]	–	–	–	–	–
–	260 nM	CC(C)c1oc2c(c1C(=O)NCCCn1ccnc1)C(=O)c1ccccc1C2=O [Compound 10, N-(3-(1H-imidazol-1-yl)propyl)-2-isopropyl-4,9-dioxo-4,9-dihydronaphtho[2,3-b]furan-3-carboxamide]	–	–	–	–	–
143.5 to 150.7 °C	918 nM	Cc1oc2c(c1C(=O)NCCCn1cccc1)C(=O)c1ccccc1C2=O [Compound 12, N-(3-(1H-pyrrol-1-yl)propyl)-2-methyl-4,9-dioxo-4,9-dihydronaphtho[2,3-b]furan-3-carboxamide]	–	–	–	–	–
151.4 to 152.7 °C	> 10000 nM	Cc1oc2c(c1C(=O)NCCCCc1ccccc1)C(=O)c1ccccc1C2=O [Compound 17, 2-Methyl-4,9-dioxo-N-(4-phenylbutyl)-4,9-dihydronaphtho[2,3-b]furan-3-carboxamide]	–	–	–	–	–
–	826 nM	O=C1c2ccccc2C(=O)c2c1oc(-c1ccccc1)c2C(=O)NCCCn1ccnc1 [Compound 9, N-(3-(1H-imidazol-1-yl)propyl)-4,9-dioxo-2-phenyl-4,9-dihydronaphtho[2,3-b]furan-3-carboxamide]	–	–	–	–	–
–	80 nM	Cc1oc2c(c1C(=O)NCCCN1CCOCC1)C(=O)c1ccccc1C2=O [Compound 20, 2-Methyl-N-(3-morpholinopropyl)-4,9-dioxo-4,9-dihydronaphtho[2,3-b]furan-3-carboxamide]	–	–	–	–	–
–	288 nM	CCc1oc2c(c1C(=O)NCCCn1ccnc1)C(=O)c1ccccc1C2=O [Compound 11, N-(3-(1H-imidazol-1-yl)propyl)-2-ethyl-4,9-dioxo-4,9-dihydronaphtho[2,3-b]furan-3-carboxamide]	–	–	–	–	–
–	280 nM	Cc1oc2c(c1C(=O)NCCn1ccnc1)C(=O)c1ccccc1C2=O [Compound 5, N-(2-(1H-imidazol-1-yl)ethyl)-2-methyl-4,9-dioxo-4,9-dihydronaphtho [2,3-b]furan-3-carboxamide]	–	–	–	–	–
–	24 nM	Cc1oc2c(c1C(=O)NCCCN1CCCC1)C(=O)c1ccccc1C2=O [Compound 18, 2-Methyl-4,9-dioxo-N-(3-(pyrrolidin-1-yl)propyl)-4,9-dihydronaphtho[2,3-b]furan-3-carboxamide]	–	–	–	–	–
